Results taken from patent US20120214743A1, “ITCH SUPPRESSANT” (University of Occupational and Environmental Health, Japan, priority 2009, published 2012).
Ends that are not written are not given here. * marks the point of attachment. SO3H = O=S(=O)(O)*

How the values were obtained:
NHEKs = assay: IL-8 production in NHEK (cytometric bead array); assay type: cell-based, human; details: CCK8S 10^−9, 10^−8 or 10^−7 M, Ca 0.15 mM or 0.6 mM, FIG. 5A
Experimental: IL^-8 concentration in the culture supernatants was quantified with Cytometric Bead Array (CBA) Flex Set System purchased from BD using FACSCanto (BD).
NHEKs were stimulated with various concentrations of CCK8S (CCK8S concentration of 10^−9, 10^−8, or 10^−7 M, Ca concentration of 0.15 mM or 0.6 mM).

ICR mice [1] = assay: Contact hypersensitivity (CHS) mouse model to DNFB, ear swelling; assay type: in vivo; details: 0.5 nmol/ear painted immediately before DNFB challenge, measured 24 hours after challenge; FIG. 5C
Experimental: For induction of CHS to 2,4-dinitrofluorobenzene (DNFB; Nakalai Tesque, Kyoto, Japan), ICR mice were sensitized on two consecutive days, days 0 and 1, on the clipped abdomen with 25 μL of 0.5% of DNFB diluted in acetone/olive oil (3:1). Five days later, animals were challenged on both sides of each ear by painting a nonirritant concentration of 0.2% DNFB. Before challenge, CCK8S (0.5 nmol/ear) diluted in acetone/olive oil (3:1) or only acetone/olive oil (control) was painted on each ear. The ear thickness of mice was measured using dial thickness gauge before and 24 hours after challenge. Ear swelling was calculated from the difference in ear thickness between before and after challenge.
In CHS model, mice were sensitized with DNFB (2,4-dinitrofluorobenzene), a haptene, and the contact hypersensitivity raised by DNFB at day 5 lead to ear swelling.

FSMCs = assay: Confocal imaging of intracellular Ca in FSMCs; assay type: cell-based, mouse
Experimental: Confocal imaging of cells loaded with fluorescent dyes was undertaken using a Zeiss LSM5 pascal (Carl Zeiss, Jena, Germany). Fluo-4-AM (Invitrogen) (1 μM) was loaded at 37° C. for 20 min and washed twice and sit at least for 40 min. Mast cells, were stained for CD117 (c-kit) with Alexa Fluor 700-conjugated anti-mouse CD117 antibody. The LSM5 multi-track configuration was used for simultaneous measurement of intracellular Ca concentration (Ca) (excitation, 488 nm; emission, long-pass 505 nm filter) and the expression of CD117 (excitation, 633 nm; emission, long-pass 650 nm filter). Images were recorded at room temperature with 512×512 pixels. The application of stimulation, such SP and CCK, were applied directly in the bath as a small drop ([…]). Image data were analyzed off-line using the Zeiss LSM510 analyzing software (LSM Image Examiner).
Thus, it is likely that CCK8S affects signaling in mast cells.

[2] = tested on: FSMCs (mouse fetal skin derived mast cells); assay: β-Hexosaminidase assay, compound 48/80-induced degranulation of FSMCs; assay type: cell-based; details: CCK8S at 10^−8 or 10^−7 M, 15 min at 37° C., FIG. 5B
Experimental: FSMCs were washed with Tyrode's buffer (Sigma), and resuspended at 2×10^4 cells per well into a 96 well plate. FSMCs were treated with compound 48/80 with or without CCK8S for 15 min at 37° C. The plate was centrifuged for 5 min and supernatant was placed into another 96 well and cell pellet were resuspended with 0.5% Triton X-100 (Sigma) in Tyrode's buffer. Supernatant and cell lysate (50 μl) was incubated with 100 μl 4 mM p-nitrophenyl-N-acetyl-β-D-galactosaminide (Sigma), dissolved in citrate buffer, pH4.5, at 37 ° C. for 90 min. The reaction is stopped with 200 μl 0.2M Glycine (MP Biomedicals, Solon, Ohio), pH10.7. The plate was read at 405 nm using a reference filter 595 nm by Microplate Reader (Bio-Rad, Hercules, Calif.). β-hexosaminidase release was determined as the ratio between activity in the supernatant and cell lysate multiplied by 100.
The addition of compound 48/80 induces degranulation in FSMCs.

ICR mice [3] = assay: SP-induced scratch behavior in ICR mice; assay type: in vivo, mouse
Experimental: Since it is considered that external administration of CCK affects keratinocytes, at first, CCK2R agonist was administered transdermally (applying the solution prepared using acetone-olive (3:1)) to itch-related behavior model (ICR mice administered intradermally with SP (100 nmol)).
The hair was clipped over the rostral part of the murine back one or two days prior to experiment. Before behavioral recording, each mouse (4 animals per observation) was put into an acrylic cage (18×23×11 cm) for at least 1 hr for acclamation. An intradermal injection of SP (100 nmol in normal saline per site) induces scratching of the skin around the injected site by the hind paws in mice. CCKs were topically applied in the two ways, percutaenous application and intradermal injection. For percutaneous application, the shaved back skin was stripped with Scotch tape (3M) 6 times the day before the experiment. The mice were painted on the clipped back with 20 μL CCK (0.5 nmol/site) in acetone/olive (3:1) 3-4 minutes before SP injection (100 nmol/site). […] Immediately after treatment, the animals were put back into the same cage and their behavior was videotaped using a digital video camera for 40 minutes. The frequency of scratch toward the injected site by hind paws was counted for the first 20 minutes with the video.

CCK1R = assay: Western blotting of CCK1R in ICR mouse keratinocytes incubated with SP; assay type: cell-based; details: SP 30 min to 24 hours, FIG. 2b
Experimental: (§1) Keratinocytes from ICR mice were stimulated with SP (10^−8 M) in six-well plates (Corning Glass Works) for 0.5-24 hours, harvested with a rubber policeman, and subjected to extraction with RIPA buffer (Wako, Osaka, Japan; Tris-HCl (pH8.0), 150 mm sodium chloride, 0.5% (wt/vol) sodium deoxycholate, 0.1% (wt/vol) SDS, and 1.0% (wt/vol) NP-40 substitute). Protein samples (20 μg) were separated by 8% SDS-polyacrylamide gel electrophoresis and electroblotted onto polyvinylidene difluoride membranes for 2 hours at 180 mA. After blocking with skim milk solution, the membranes were incubated with rabbit anti-mouse CCK1R (SC-33220; 1:1,000, Santa Cruz, Santa Cruz, Calif.) polyclonal antibodies,or CCK2R (SC-33221; 1:1,000, Santa Cruz) polyclonal antibodies, and the reaction was detected with horseradish peroxidase—conjugated goat anti-rabbit IgG (1:3,000, Bio-Rad, Hercules, Calif.). […] Bands were quantified by densitometry with the help of a CS Analyzer version 2.0 (ATTO, Tokyo, Japan). […]
(§2) To determine the effect of SP on keratinocytes, ICR mouse keratinocytes were incubated with SP for 30 min to 24 hours and the expression of CCK2R and CCK1R were analyzed by western blotting. CCK2R was detected with antibodies as 78 kDa band, and increased in keratinocytes exposed to SP for 5 or 6 hours (FIG. 2a). […]

CCK2R = assay: Western blotting of CCK2R in ICR mouse keratinocytes incubated with SP; assay type: cell-based; details: exposed to SP for 5 or 6 hours, FIG. 2a
Experimental: as §1, §2

[4] = tested on: normal human keratinocytes (NHEKs); assay: DNA microarray of mRNA expression in stimulated normal human keratinocytes; assay type: cell-based; details: NHEKs, Ca 0.6 mM; SP 10^−6 M, histamine 10 μM/mL, SLIGRL-NH2 100 nM
Experimental: For DNA microarray analysis, total RNA was extracted from NHEKs with the RNeasy Mini Kit (QIAGEN, Valencia, Calif.). Images obtained from a plate reader were analyzed with DNASIS Array (DNA CHIP RESERCH Inc., Hitachi Software Engineering, Tokyo, Japan), according to the manufacturer's instructions.
The values are log2 (mRNA expression level of each stimulated sample/expression level of the control).

Asp-Tyr(SO3H)-Met-Gly-Trp-Met-Asp-Phe-NH2 (DY(SO3H)MGWMDF-NH2) [CCK8S, natural type cholecystokinin, tyrosine at seventh position from C-terminal sulfated]
production of IL-8 (NHEKs): decreased in accordance with the concentration
ear swelling (ICR mice [1]): suppressed
percentage of responding FSMCs (FSMCs; Ca response after CCK8S, FIG. 6 bottom): 45%
change of intracellular Ca concentration (FSMCs; FSMCs, Fluo-4-AM, FIG. 6 top): transient increase
time to transient increase in Ca after the administration (FSMCs; FSMCs, FIG. 6 top): ≤ 1 min
degranulation (β-hexosaminidase release) induced by compound 48/80 [2]: suppression of degranulation was observed
scratch behavior (frequency of scratch, first 20 minutes) (ICR mice [3]; subcutaneous administration, 0.5 nmol/site in saline simultaneously with SP 100 nmol, FIG. 3B): depressed
scratch behavior (frequency of scratch, first 20 minutes) (ICR mice [3]; transdermal, 0.5 nmol/site in acetone/olive (3:1), tape-stripped skin, 3-4 minutes before SP 100 nmol/site intradermal, FIG. 3): significant reduction

Substance P [SP]
CCK1R expression in keratinocytes exposed to SP (CCK1R): not augmented
CCK2R expression (78 kDa band) in keratinocytes exposed to SP (CCK2R): increased
ACTL7B mRNA, log2 (expression level of stimulated sample/expression level of the control) [4]: 0.99 log2
ANKRD6 mRNA, log2 (expression level of stimulated sample/expression level of the control) [4]: 3.20 log2
AR mRNA, log2 (expression level of stimulated sample/expression level of the control) [4]: 0.99 log2
ARG1 mRNA, log2 (expression level of stimulated sample/expression level of the control) [4]: 1.69 log2
BUB1B mRNA, log2 (expression level of stimulated sample/expression level of the control) [4]: 3.06 log2
CCK2R mRNA, log2 (expression level of stimulated sample/expression level of the control) [4]: 8.67 log2
CKM mRNA, log2 (expression level of stimulated sample/expression level of the control) [4]: 1.72 log2
CLEC7A mRNA, log2 (expression level of stimulated sample/expression level of the control) [4]: 1.16 log2
CYP17A1 mRNA, log2 (expression level of stimulated sample/expression level of the control) [4]: 1.40 log2
F10 mRNA, log2 (expression level of stimulated sample/expression level of the control) [4]: 1.74 log2
FCN3 mRNA, log2 (expression level of stimulated sample/expression level of the control) [4]: 4.50 log2
ICAM1 mRNA, log2 (expression level of stimulated sample/expression level of the control) [4]: 1.16 log2
MAP3K1 mRNA, log2 (expression level of stimulated sample/expression level of the control) [4]: 1.06 log2
MMP9 mRNA, log2 (expression level of stimulated sample/expression level of the control) [4]: 1.12 log2
NDRG4 mRNA, log2 (expression level of stimulated sample/expression level of the control) [4]: 1.00 log2
PDE7B mRNA, log2 (expression level of stimulated sample/expression level of the control) [4]: 1.02 log2
PTN mRNA, log2 (expression level of stimulated sample/expression level of the control) [4]: 4.04 log2
RASSF7 mRNA, log2 (expression level of stimulated sample/expression level of the control) [4]: 1.82 log2
SERPINI2 mRNA, log2 (expression level of stimulated sample/expression level of the control) [4]: 1.00 log2
SV2B mRNA, log2 (expression level of stimulated sample/expression level of the control) [4]: 1.54 log2
